# In publication PMC9486951, “Tetramate Derivatives by Chemoselective Dieckmann Ring Closure of threo-Phenylserines and Their Antibacterial Activity” (The Journal of Organic Chemistry, 2022):
# Read-outs that look alike come from different tables or passages of the source.
# Key:
# [1] = test system: methicillin-resistant Staphylococcus aureus (MRSA); test: MIC determination by broth dilution assay against MRSA; assay type: cell-based
# Experimental: (§1) With access to these derivatives routinely available, an assessment of their antibacterial activity was made by measuring minimum inhibitory concentration (MIC) values (Table S6) against two example organisms, methicillin-resistant Staphylococcus aureus (MRSA) and E. coli. […] By contrast, a more polar substituent at the C7-position (pyran 12t) compromised the antibacterial activity (125 μg/mL). […] Compound 13b had the same activity as 12g at 1.00 μg/mL. Overall, increasing lipophilicity corresponded to higher potency against MRSA. […]
# (§2) Screening of compounds were performed by Oxford Antibiotic Group, Austria. For MIC determination by broth dilution assay, the samples were tested in a primary 96 well plates screening assay, in duplicate. The compounds were diluted in Mueller Hinton Broth (MHB) for bacterial screening to a stock solution of 1000 µg/mL, serial diluted and overlaid with a microbe solution in a concentration of 10^4 CFU/ml. […]
# E. coli = test: MIC determination by broth dilution assay against E. coli; assay type: cell-based
# Experimental: as §1, §2
# Hela cell line = test: Cytotoxicity assay (Alamar blue), Hela; assay type: cell-based, human; conditions: Homo sapiens, HeLa; read-out: cell lines EC50, Hela
# Experimental: (§3) The selectivity of these compounds for activity against prokaryotic cells over mammalian cells was analyzed by considering their cytotoxicity against Hela, heK-293, CaCo, and MDCK […] cell lines, allowing estimation of the therapeutic ratio [EC50Hela cell line/MIC(S. aureus)] (Table 3). […]
# Screening of compounds were performed by Oxford Antibiotic Group, Austria. For MIC determination by broth dilution assay, the samples were tested in a primary 96 well plates screening assay, in duplicate. The compounds were diluted in Mueller Hinton Broth (MHB) for bacterial screening to a stock solution of 1000 µg/mL, serial diluted and overlaid with a microbe solution in a concentration of 10^4 CFU/ml. The plates were incubated for […]
# (§4) For cytotoxicity testing, the synthesized compounds were tested against four different cell lines: HeLa, HEK 293, MDCK and CaCo. The cells were seeded in a 96 well plate and incubated until a confluence of 80% was achieved (under physiological conditions - 37°C, 5% CO2 and 95% humidity). The samples were tested by serial dilution in triplicates with starting concentration of 250 µg/mL. After 24 and 48 hours the survival of cells was evaluated by microscope and measured with Alamar blue. IC50 values were obtained from the calibration curves. […]
# heK-293 cell line = test: Cytotoxicity assay (Alamar blue), heK-293; assay type: cell-based; conditions: Homo sapiens, HEK293; read-out: cell lines EC50, heK-293
# Experimental: as §3
# (§5) Screening of compounds were performed by Oxford Antibiotic Group, Austria. […]
# as §4
# CaCo cell line = test: Cytotoxicity assay (Alamar blue), CaCo; assay type: cell-based; conditions: Homo sapiens; read-out: cell lines EC50, CaCo
# Experimental: as §3, §5, §4
# MDCK cell line = test: Cytotoxicity assay (Alamar blue), MDCK; assay type: cell-based; conditions: read-out: cell lines EC50, MDCK
# Experimental: as §3, §5, §4
# [2] = Staphylococcus aureus, MRSA, Table S6, read-out: MIC
# [3] = Staphylococcus aureus, MRSA, broth dilution, read-out: MIC against MRSA
# [4] = Staphylococcus aureus, MRSA, Table 3, read-out: MIC(S. aureus)
# [5] = Staphylococcus aureus, MRSA, Table S5, against S. aureus, read-out: MIC
SMILES,"MIC [1, 3] [µg/mL]","MIC [1, 5] [µg/mL]",MIC ([1]; Table S6) [µg/mL],other results
Cc1ccc([C@H]2O[C@@H](C(C)(C)C)N3C(=O)C(C(=O)NC45CC6CC(CC(C6)C4)C5)=C(O)[C@H]23)cc1 (mixture of isomers) [13a],3.9,–,–,"MIC [1, 2]: 3.9 µg/mL; MIC ([1]; Table S5, against S. aureus): 3.9 µg/mL"
CC(C)(C)[C@@H]1O[C@H](c2ccc(F)cc2)[C@H]2C(O)=C(C(=O)NC34CC5CC(CC(C5)C3)C4)C(=O)N21 (mixture of isomers) [compound 20],1,–,–,"MIC [1, 2]: 1 µg/mL; MIC ([1]; Table S5, against S. aureus): 1.0 µg/mL"
CC(C)(C)[C@@H]1O[C@H](c2ccc(Cl)cc2)[C@H]2C(O)=C(C(=O)NC34CC5CC(CC(C5)C3)C4)C(=O)N21 (mixture of isomers) [compound 21],7.8,–,–,"MIC [1, 2]: 7.8 µg/mL; MIC ([1]; Table S5, against S. aureus): 7.8 µg/mL"
CC(C)(C)[C@@H]1O[C@H](c2ccc(Br)cc2)[C@H]2C(O)=C(C(=O)NC34CC5CC(CC(C5)C3)C4)C(=O)N21 (mixture of isomers) [compound 22],0.49,–,–,"MIC [1, 2]: 0.49 µg/mL; MIC ([1]; Table S5, against S. aureus): 0.49 µg/mL"
CCOC(=O)C1=C(O)[C@@H]2[C@@H](c3ccccc3)O[C@@H](C(C)(C)C)N2C1=O (racemic) [10a],–,–,–,antibacterial activity against MRSA (in words) [1]: no activity; antibacterial activity against E. coli (in words) (E. coli): no activity
CCOC(=O)C1=C(O)[C@@H]2[C@@H](c3ccc(F)cc3)O[C@@H](C(C)(C)C)N2C1=O (racemic) [10c],–,–,–,"MIC [1, 4]: 31.3 µg/mL; MIC [1, 2]: 31.3 µg/mL; EC50 (Hela cell line): 31.3 µg/mL; EC50 (heK-293 cell line): 62.5 µg/mL; EC50 (CaCo cell line): 62.5 µg/mL; EC50 (MDCK cell line): 62.5 µg/mL"
CCOC(=O)C1=C(O)[C@@H]2[C@@H](c3ccc(Cl)cc3)O[C@@H](C(C)(C)C)N2C1=O (racemic) [10d],–,–,–,"MIC [1, 4]: 15.6 µg/mL; MIC [1, 2]: 15.6 µg/mL; EC50 (Hela cell line): 31.3 µg/mL; EC50 (heK-293 cell line): 31.3 µg/mL; EC50 (CaCo cell line): 31.3 µg/mL; EC50 (MDCK cell line): 62.5 µg/mL"
CCOC(=O)C1=C(O)[C@@H]2[C@@H](c3ccc(Br)cc3)O[C@@H](C(C)(C)C)N2C1=O (racemic) [10e],–,–,–,"MIC [1, 4]: 15.6 µg/mL; MIC [1, 2]: 15.6 µg/mL; EC50 (Hela cell line): 31.3 µg/mL; EC50 (heK-293 cell line): 62.5 µg/mL; EC50 (CaCo cell line): 62.5 µg/mL; EC50 (MDCK cell line): 62.5 µg/mL"
CC(C)(C)[C@@H]1O[C@H](c2ccccc2)[C@H]2C(O)=C(C(=O)Nc3ccccc3)C(=O)N21 (racemic) [12b],7.8,7.8,7.8,–
CC(C)(C)[C@@H]1O[C@H](c2ccccc2)[C@H]2C(O)=C(C(=O)Nc3ccc(Br)cc3)C(=O)N21 (racemic) [12c],3.9,3.9,3.9,–
CC(C)(C)[C@@H]1O[C@H](c2ccccc2)[C@H]2C(O)=C(C(=O)Nc3ccc([N+](=O)[O-])cc3)C(=O)N21 (racemic) [12d],3.9,3.9,3.9,antibacterial activity against MRSA (in words) [1]: good bioactivity
CC(C)(C)[C@@H]1O[C@H](c2ccccc2)[C@H]2C(O)=C(C(=O)Nc3ccc(C(F)(F)F)cc3)C(=O)N21 (racemic) [12e],1,1,1.0,–
Cc1cc(Cl)ccc1NC(=O)C1=C(O)[C@@H]2[C@@H](c3ccccc3)O[C@@H](C(C)(C)C)N2C1=O (racemic) [12g],1,1,1.0,–
Cc1ccc(NC(=O)C2=C(O)[C@@H]3[C@@H](c4ccccc4)O[C@@H](C(C)(C)C)N3C2=O)c(Cl)c1 (racemic) [12h],–,3.9,3.9,–
CC(C)(C)[C@@H]1O[C@H](c2ccccc2)[C@H]2C(O)=C(C(=O)Nc3ccc(C(F)(F)F)cc3Cl)C(=O)N21 (racemic) [12i],–,0.49,0.49,antibacterial activity against MRSA (in words) [1]: high activities
CC(C)(C)[C@@H]1O[C@H](c2ccccc2)[C@H]2C(O)=C(C(=O)Nc3ccc(Cl)cc3C(F)(F)F)C(=O)N21 (racemic) [12j],–,3.9,3.9,–
Cc1ccc(NC(=O)C2=C(O)[C@@H]3[C@@H](c4ccccc4)O[C@@H](C(C)(C)C)N3C2=O)c(C)c1 (racemic) [12k],–,3.9,3.9,–
Cc1cc(F)ccc1NC(=O)C1=C(O)[C@@H]2[C@@H](c3ccccc3)O[C@@H](C(C)(C)C)N2C1=O (racemic) [12l],–,1,1.0,antibacterial activity against MRSA (in words) [1]: high activities
CCCCCCc1ccc(NC(=O)C2=C(O)[C@@H]3[C@@H](c4ccccc4)O[C@@H](C(C)(C)C)N3C2=O)cc1 (racemic) [12m],0.49,0.49,0.49,–
CC(C)(C)[C@@H]1O[C@H](c2ccccc2)[C@H]2C(O)=C(C(=O)NC3CCCCC3)C(=O)N21 (racemic) [12n],1,1,1.0,–
CC(C)(C)[C@@H]1O[C@H](c2ccccc2)[C@H]2C(O)=C(C(=O)NC3CCCCCC3)C(=O)N21 (racemic) [12o],1,1,1.0,–
CCCCCCNC(=O)C1=C(O)[C@@H]2[C@@H](c3ccccc3)O[C@@H](C(C)(C)C)N2C1=O (racemic) [12p],3.9,3.9,3.9,–
CCCCCCCCCNC(=O)C1=C(O)[C@@H]2[C@@H](c3ccccc3)O[C@@H](C(C)(C)C)N2C1=O (racemic) [12q],0.49,0.49,0.49,–
CCCCCCCCCCCCNC(=O)C1=C(O)[C@@H]2[C@@H](c3ccccc3)O[C@@H](C(C)(C)C)N2C1=O (racemic) [12r],0.49,0.49,0.49,–
CC(C)(C)[C@@H]1O[C@H](c2ccccc2)[C@H]2C(O)=C(C(=O)Nc3ccc(C4CCCCC4)cc3)C(=O)N21 (racemic) [12s],1,1,1.0,–
CC(C)(C)[C@@H]1O[C@H](c2ccccc2)[C@H]2C(O)=C(C(=O)NC3CCOCC3)C(=O)N21 (racemic) [12t],125,125,125,–
CC(C)(C)[C@@H]1O[C@H](c2ccccc2)[C@H]2C(O)=C(C(=O)NCc3ccccc3)C(=O)N21 (racemic) [12u],15.6,15.6,15.6,–
CC(C)(C)NC(=O)C1=C(O)[C@@H]2[C@@H](c3ccccc3)O[C@@H](C(C)(C)C)N2C1=O (racemic) [12v],–,3.9,3.9,antibacterial activity against MRSA (in words) [1]: comparable activity with the hexyl 12p
Cc1ccc([C@H]2O[C@@H](C(C)(C)C)N3C(=O)C(C(=O)Nc4ccc(Cl)cc4C)=C(O)[C@H]23)cc1 (racemic) [13b],1,–,–,"MIC [1, 2]: 1 µg/mL; MIC ([1]; Table S5, against S. aureus): 1.0 µg/mL"
CCOC(=O)C1=C(O)[C@@H]2[C@@H](c3ccc(C)cc3)O[C@@H](C(C)(C)C)N2C1=O [10b],–,–,–,antibacterial activity against MRSA (in words) [1]: no activity; antibacterial activity against E. coli (in words) (E. coli): no activity
